Measured values taken from US12091378B2, “Therapeutics for central nervous system disorders” (1GLOBE BIOMEDICAL CO., LTD., priority 2017, dated 2024).
Where a name gives a salt, the structure may show the parent alone.

Key:
[1] = tested on: CPZ-induced demyelination; assay: Therapeutic treatment of CPZ-induced demyelination in vivo (LFB staining); parameters: species or system mice; conditions: for Demyelination (Score of LFB staining): score 0 complete myelination, 4 complete demyelination, average ± SEM; for recovery from CPZ-induced demyelination and axon damage: therapeutic treatment, Examples 12 and 13
Description: As shown in FIGS. 12A-12C, the compound of the present invention was also tested in vivo to determine its therapeutic effect on promoting remyelination on CPZ-induced demyelination in comparison to DMF. Schematic of the study is depicted in FIG. 12A. Eight-week old mice were fed a diet containing 0.3% (w/w) of CPZ to induce demyelination for 6 weeks. The control mice received regular mouse chow. The CPZ fed mice received oral gavage of formulation (Vehicle), DMF or Compound 1 at the beginning of week 6 for two weeks. At the end of treatment, the brains were collected and, post fixed, processed for analysis. The myelin was stained with LFB stain. Representative images of LFB staining of mouse brain sections are shown in FIG. 12B where midline corpus callosum (CC) is delineated by squares in the top panels (scale bar: 200 μm) and then shown at higher magnification in the lower panels (scale bar: 25 μm). Quantitative analysis of myelination of LFB staining is shown in FIG. 12C where myelination is scored as follows: a score of 0 means complete myelination and a score of 4 means complete demyelination. *p<0.05, *** p<0.001 compared with CPZ with vehicle treatment (n=4-6 mice).
(§1) According to the above Examples 12 and 13, the therapeutic effects of Compound 1 and DMF on CPZ-induced demyelination and axon damage were summarized below where quantitative analysis of myelination and axon integrity in adult female mice was performed and results shown in Table 1. The scoring of myelination and axon damage was performed as described in Example 12 and Example 13. The treatments are as indicated. The average scores and SEM are shown. Statistic differences were analyzed by one way ANOVA followed by Tukey test. *p<0.05, **p<0.01, […] compared with normal control; #p<0.05, ##p<0.01, ###p<0.001 compared with CPZ plus vehicle, §§p<0.01 compared with CPZ plus DMF at 10 mg/kg (n=4-6 mice).

[2] = tested on: CPZ-induced demyelination; assay: Prophylactic treatment of CPZ-induced demyelination in vivo (LFB staining); parameters: species or system mice; conditions: 10 mg/kg oral gavage for 7 weeks, formulations HPC or GHI F505-1
Description: As shown in FIGS. 9A-9C, the compound of the present invention (Compound 1) was able to prevent CPZ-induced demyelination in adult female mice. FIG. 9A illustrates the schematic of the study. Eight-week old female mice were fed a diet containing 0.3% (w/w) of CPZ to induce demyelination for 6 weeks. The control mice received regular mouse chow. In the meantime, CPZ fed mice received oral gavage of formulation (Vehicle) or Compound 1 (10 mg/kg) for 7 weeks. At the end of the treatment, mice were perfused, and the brains were collected and processed for analysis. The extent of myelination was examined by staining with Luxol Fast Blue (LFB). Representative images of LFB staining of mouse brain sections are shown in FIG. 9B where midline corpus callosum (CC) is delineated by dotted squares in the top panels (scale bar: 200 μm) and then shown at higher magnification in the lower panels (scale bar: 25 μm). Myelinated axons in the CC from mice fed with normal chow are stained as compacted blue (shown here as gray-colored, same for all following blue-colored pictures). […] Quantitative analysis of myelination of LFB staining is shown in FIG. 9C where myelination is scored as follows: a score of 0 means complete myelination and a score of 4 means complete demyelination. […]

cerebellar slices [3] = assay: Remyelination on CPZ-induced demyelination in cerebellar slices (MBP immunofluorescence); assay type: cell-based, mice; conditions: 50 μM, 3 days in culture
Description: Specifically, cerebellar slices from 8 week-old female mice were treated with cuprizone (CPZ) to induce demyelination, and then treated with representative compound of the invention Compound 1 (50 μM) for 3 days in culture. The slices were processed for immunofluorescence staining with anti-MBP antibody. The images were captured with Nikon eclipse TE2000 microscope using Spot Advanced software (version 4.3) at 4×magnification. The fluorescence intensity of MBP of the cerebellar slice in each image was measured with NIH Image J.

IGF-2 = IGF-2 in plasma of CPZ MS animal model (ELISA); assay type: in vivo; conditions: 10 mg/kg oral gavage for 7 weeks, CPZ fed mice
Excerpt: IGF2 is a neurotrophic factor which is essential for the development and regeneration of the nervous system, and plays a pivotal role in adult neurogenesis and cognitive function (see Fernadez A M and Torres-Aleman I, 2007, Nat Rev Neurosci 13(4):225-39; Iwamoto T and Ouchi Y, 2014, Rev Neurosci 25(4):559-74). […] FIG. 11A illustrates the schematic of the study. Experimental setup was similar to that in Example 9: eight-week old female mice were fed a diet containing 0.3% (w/w) of CPZ to induce demyelination for 6 weeks. The control mice received regular mouse chow. In the meantime, CPZ fed mice received oral gavage of formulation (Vehicle) or Compound 1 (10 mg/kg) for 7 weeks. At the end of treatment, the plasma was collected and processed for analysis. The levels of IGF-2 in mouse plasma were measured using ELISA. The scatter plot of IGF-2 concentrations found in individual mice is shown in FIG. 11B. **p<0.01 of CPZ plus Compound 1-treated group compared with control (Ctl), or CPZ-treated group (n=4).

EAE mouse model = assay: Clinical score of mouse EAE model (pilot study); assay type: in vivo, C57/BL6 mice; conditions: 10 mg/ml daily from EAE onset for 20 days
Description: EAE mouse model was induced by inoculation of MOG35-55 protein in adult C57/BL6 mice. Mean clinical score of EAE mice treated with vehicle or Compound 1 (10 mg/ml) for a duration of 42 days after immunization was shown in FIG. 14. The treatments were applied daily from the date of EAE onset for 20 days.

MBP, NF, APP, GFAP, Iba1 = assay: Molecular markers for myelination, axon integrity and glia activation in brain sections (immunofluorescence); assay type: in vivo, mouse; conditions: CPZ + 10 mg/kg, trend versus CPZ
Description: Effects of Compound 1 on molecule markers relevant to myelination, axon integrity and gliosis were also examined in the brain sections from normal control, CPZ-treated, and CPZ plus Compound 1 treated animals. Molecules in mouse brain sections were stained with respective antibodies by immunofluorescence. The fluorescent intensity of MBP- and NF-labeled fibers were measured with Image J. The number of specific antibody-stained cells in 400×microscopic fields were counted. Although statistic analysis is still in progress, the trends of the effects are clear from the images available so far.

CPZ-induced axon damage [4] = assay: Therapeutic treatment of CPZ-induced axon damage in vivo (silver staining); parameters: species or system mice; conditions: score 0 no axon damage, 4 complete axon damage, average ± SEM
Excerpt: Schematic of this study is depicted in FIG. 13A. Eight-week old female mice were fed a diet containing 0.3% (w/w) of CPZ to induce demyelination for 6 weeks. The control mice received regular mouse chow. The CPZ fed mice received oral gavage of formulation (Vehicle), DMF or Compound 1 at the beginning of week 6 for two weeks. At the end of treatment, the brains were collected, and post fixed, processed for morphological analysis. The axons were stained with Bielschowsky's Silver staining. Representative images of silver staining of mouse brain sections are shown in FIG. 13B where midline corpus callosum (CC) is delineated by white squares in the top panels (scale bar: 200 μm) and then shown at higher magnification in the lower panels (scale bar: 25 μm). Quantitative analysis of axon damage of silver staining is shown in FIG. 13C where axon damage is scored as follows: a score of 0 means no axon damage, and a score of 4 means complete axon damage. **p<0.01, ***p<0.001 compared with CPZ plus vehicle; ##p<0.01 compared with CPZ plus DMF (n=4-6 mice).
as §1

Microglia = assay: LPS/IFN-induced microglia activation (Iba1 positive cells); assay type: cell-based, mice; conditions: 50 μM, LPS 10 ng/mL and IFN 20 ng/ml, 48 hours
Description: Microglia from P7 mice were treated with lipopolysaccharide (LPS, 10 ng/mL) and Interferon-gama (IFN, 20 ng/ml) to induce activation of microglia for 48 hours. To determine the effects on LPS/IFN-induced microglia activation, DMF or various embodiments of compounds of the invention (all at 50 μM) were individually added into separate culture samples 30 minutes after LPS/IFN were added. Cells were later fixed and processed for immunofluorescence (IF) staining with anti-Iba1 (ionized calcium-binding adaptor molecule 1) antibody. The number of Iba1 positive cells and the total number of cells (Hochest H33342 positive cells which includes dead and live cells) were quantified from 12 consecutive areas under fluorescent microscope with 20×objective.

CPZ-induced axon damage [5] = assay: Prophylactic treatment of CPZ-induced axonal damage in vivo (Bielschowsky's silver staining); parameters: species or system mice; conditions: 10 mg/kg oral gavage for 7 weeks, formulations HPC or GHI F505-1
Excerpt: The mice were fed and treated with the same method as Example 9. The Bielschowsky's silver staining was used to visualize axon fiber in mouse brains. Representative images of silver staining of mouse brains sections are shown in FIG. 10A where midline corpus callosum (CC) is delineated by dotted squares in the top panels (scale bar: 200 μm) and then shown at higher magnification in the lower panels (scale bar: 25 μm). While a linear staining pattern of continuous axon fibers is present in normal control CC, axon damage with interruption of axon fibers and demyelination is observed in the CC of CPZ-treated animals. […] Quantitative analysis of silver-stained axons is shown in FIG. 10B where axon damage is scored as follows: a score of 0 means no axon damage and a score of 4 means complete axon damage. Columns “10-A” and “10-B” indicate samples treated with Compound 1 at 10 mg/kg in formulations HPC or GHI F505-1, respectively. *p<0.05, ***p<0.001 compared with control; ## p<0.01 compared with CPZ with vehicle treatment (n=4 mice).

cerebellar slices [6] = assay: Remyelination on LPC-induced demyelination in cerebellar slices (MBP immunofluorescence); assay type: cell-based, mice; conditions: 50 μM, 3 days in culture, LPC 2 mg/mL
Description: Specifically, cerebellar slices from 8 week-old female mice were treated with lysophosphatidylcholine (LPC, 2 mg/mL) to induce demyelination, and then treated with representative compound of the invention, Compound 1 (50 μM), for 3 days in culture. The slices were processed for immunofluorescence staining with anti-MBP antibody. The images were captured with Nikon eclipse TE2000 microscope using Spot Advanced software (version 4.3) at 4×magnification.

[7] = tested on: adult cerebellar granule neurons (CGN); assay: Adult CGN survival (Cell Counting Kit-8); assay type: cell-based, mice; conditions: 50 μM and 10 μM, 48 hours
Description: CGN cells from 8 week-old female mice (C57BL/6) were maintained in neurobasal medium with B27 supplements. 2×10^5 cells were plated in each well of a PLL-coated 48 well plate with 400 μl of culture medium. Various embodiments of novel compounds of the invention at 50 μM (FIG. 8A) and 10 μM (FIG. 8B), CNTF (10 ng/mL) or DMF (50 μM) were added respectively into the cell culture samples for 48 hours. Cell counting solution (Cell Counting Kit-8, Dojindo, 40 μL) was added to the culture, and cells were incubated at 37° C. with 5% CO2 for 20 hours. The optical densities (OD) of absorbance at 450 nm were measured with SpectraMax M3 plate reader.

[8] = 0.1 mg/kg oral gavage for two weeks
[9] = 10 mg/kg oral gavage for two weeks

COC(=O)/C=C/C(=O)OCc1ccc(COC(=O)NC(=N)NC(=N)N(C)C)cc1 [Compound 1]
Demyelination (Score of LFB staining) [1, 8]: 2.00 ± 0.26 | Demyelination (Score of LFB staining) [1, 9]: 1.33 ± 0.21 | recovery from CPZ-induced demyelination and axon damage [1]: robust recovery | prevention of CPZ-induced demyelination (LFB staining) [2]: prevents CPZ-induced demyelination | remyelination on CPZ-induced demyelination (MBP fluorescence intensity) (cerebellar slices [3]): promotes remyelination | level of IGF-2 in mouse plasma (IGF-2): significantly increase | persistence of effect on clinical score after termination of treatment (EAE mouse model): persisted for over two weeks after termination of treatment | average clinical scores versus vehicle (EAE mouse model; 42 days after immunization, n=5): significantly lower average clinical scores | APP (Axonal damage) (MBP, NF, APP, GFAP, Iba1): ↓ | GFAP (Astrogliosis) (MBP, NF, APP, GFAP, Iba1): ↓ | Iba 1 (Activated microglia) (MBP, NF, APP, GFAP, Iba1): ↓ | MBP (Myelin) (MBP, NF, APP, GFAP, Iba1): ↑ | NF (Neural fibers) (MBP, NF, APP, GFAP, Iba1): ↑ | Axon damage (Score of Silver staining) (CPZ-induced axon damage [4]; [8]): 1.33 ± 0.21 | Axon damage (Score of Silver staining) (CPZ-induced axon damage [4]; [9]): 0.83 ± 0.31 | inhibiting microglia activation (Iba1 positive cells) (Microglia): significantly better efficacy in comparison to DMF | prevention of CPZ-induced axon damage (silver staining) (CPZ-induced axon damage [5]): preserved the continuous staining pattern of axon fibers | remyelination on LPC-induced demyelination (MBP fluorescence intensity) (cerebellar slices [6]): strong remyelination effects

COC(=O)/C=C/C(=O)OCCCCCCOC(=O)NC(=N)NC(=N)N(C)C [Compound 2]
inhibiting microglia activation (Iba1 positive cells) (Microglia): significant capability for inhibiting microglia activation

COC(=O)/C=C/C(=O)OC [DMF, dimethyl fumarate, reference compound]
Demyelination (Score of LFB staining) [1, 9]: 2.25 ± 0.25 | recovery from CPZ-induced demyelination and axon damage [1]: not significant | Axon damage (Score of Silver staining) (CPZ-induced axon damage [4]; [9]): 2.25 ± 0.25 | effect on adult CGN survival [7]: little effect
